Data from US8163740B2, “6-substituted benzoxazines” (Hoffmann-La Roche Inc., priority 2008, dated 2012).

target: recombinant human 5-HT5A receptor (Homo sapiens, UniProt P47898); assay: [3H]LSD radioligand binding assay; conditions: [3H]LSD (approximately 1 nM); membranes from HEK-EBNA cells transiently expressing 5-HT5A; Ki by Cheng-Prussoff equation; read-out: Ki
Method: A [^3H]LSD radioligand binding assay was used to determine the affinity of the compounds for the recombinant human 5-HT5A receptor, in membranes from transiently (cDNA) expressed 5-HT5A receptors in Human Embryonic Kidney-EBNA (HEK-EBNA) cells. Assay buffer consisted of Tris (50 mM) buffer containing 1 mM EGTA, 10 mM MgCl2 (pH 7.4) and 10 μM pargyline. The binding assay was carried out in 96-well-plates in the presence of [^3H]LSD (approximately 1 nM), approximately 2 μg/well of membrane protein, and 0.5 mg of Ysi-poly-1-lysine SPA beads in a final volume of 200 μl of buffer. Non-specific binding was defined using methiothepin 2 μM. Compounds were tested at 10 concentrations. All assays were conducted in duplicate and repeated at least two times. Assay plates were incubated for 120 min at room temperature before centrifugation. Bound ligand was determined using a Packard Topcount scintillation counter. IC50 values were calculated using a non-linear curve fitting program and Ki values calculated using the Cheng-Prussoff equation.

Chain of recombinant human 5-HT5A receptor (P47898 whole entry): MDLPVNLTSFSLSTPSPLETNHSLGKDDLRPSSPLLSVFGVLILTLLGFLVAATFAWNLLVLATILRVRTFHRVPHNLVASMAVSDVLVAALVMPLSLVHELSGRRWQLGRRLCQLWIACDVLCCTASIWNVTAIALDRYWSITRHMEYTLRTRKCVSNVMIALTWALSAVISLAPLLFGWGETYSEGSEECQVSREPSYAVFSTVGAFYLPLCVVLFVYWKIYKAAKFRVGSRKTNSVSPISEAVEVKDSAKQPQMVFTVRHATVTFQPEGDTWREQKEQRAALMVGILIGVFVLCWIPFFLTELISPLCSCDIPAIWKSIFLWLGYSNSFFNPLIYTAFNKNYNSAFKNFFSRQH

COc1cccc2c1C(NC1=Nc3ccc(NS(=O)(=O)C4CC4)cc3CO1)CO2 (racemic) [Example 113, rac-Cyclopropanesulfonic acid [2-(4-methoxy-2,3-dihydro-benzofuran-3-ylamino)-4H-benzo[d][1,3]oxazin-6-yl]-amide] was tested. Which Ki did it give?
Its Ki is 0.0126 µM.

For O=C(Nc1ccc2c(c1)COC(NCCOc1ccccc1)=N2)C1CC1 [Example 96, Cyclopropanecarboxylic acid [2-(2-phenoxy-ethylamino)-4H-benzo[d][1,3]oxazin-6-yl]-amide], which Ki is on record?
Its Ki is 0.0033 µM.

With CN1CCN(CC(=O)Nc2ccc3c(c2)COC(NC2COc4cc(F)ccc42)=N3)CC1 (racemic) [Example 44, rac-N-[2-(6-Fluoro-2,3-dihydro-benzofuran-3-ylamino)-4H-benzo[d][1,3]oxazin-6-yl]-2-(4-methyl-piperazin-1-yl)-acetamide] as the compound, how does the Ki read?
Its Ki is 0.0065 µM.

Which Ki does the source give for O=S(=O)(Nc1ccc2c(c1)COC(Nc1cccc(C3CC3)c1)=N2)C1CC1 [Example 149, Cyclopropanesulfonic acid [2-(3-cyclopropyl-phenylamino)-4H-benzo[d][1,3]oxazin-6-yl]-amide] here?
The Ki was 0.138 µM.

For COCCNCC(=O)Nc1ccc2c(c1)COC(N[C@@H]1CCCc3ccccc31)=N2 [Example 40, 2-(2-Methoxy-ethylamino)-N-{2-[(R)-(1,2,3,4-tetrahydro-naphthalen-1-yl)amino]-4H-benzo[d][1,3]oxazin-6-yl}-acetamide], which Ki is on record?
Its Ki is 0.033 µM.

Which Ki does the source give for O=C(CN1CCOCC1)Nc1ccc2c(c1)COC(N[C@@H]1CCc3ccccc31)=N2 [Example 37, N-[2-((R)-Indan-1-ylamino)-4H-benzo[d][1,3]oxazin-6-yl]-2-morpholin-4-yl-acetamide] here?
Its Ki is 0.00874 µM.

With COc1cccc2c1C(NC1=Nc3ccc(Nc4cccc(C(F)(F)F)n4)cc3CO1)CC2 (racemic) [Example 80, rac-N^2-(7-Methoxy-indan-1-yl)-N^6-(6-trifluoromethyl-pyridin-2-yl)-4H-benzo[d][1,3]oxazine-2,6-diamine] as the compound, how does the Ki read?
Its Ki is 0.00426 µM.

For COCC(=O)Nc1ccc2c(c1)COC(NC1COc3cccc(OC)c31)=N2 (racemic) [Example 17, rac-2-Methoxy-N-[2-(4-methoxy-2,3-dihydro-benzofuran-3-ylamino)-4H-benzo[d][1,3]oxazin-6-yl]-acetamide], which Ki is on record?
Its Ki is 0.0261 µM.

With CC(C)NC(=O)Nc1ccc2c(c1)COC(Nc1cccc3c1OC(C)(C)C3)=N2 [Example 139, 1-[2-(2,2-Dimethyl-2,3-dihydro-benzofuran-7-ylamino)-4H-benzo[d][1,3]oxazin-6-yl]-isopropyl-urea] as the compound, how does the Ki read?
Its Ki is 0.241 µM.

Which Ki does the source give for O=S(=O)(Nc1ccc2c(c1)COC(NC1CCCCCC1)=N2)c1ccccc1 [Example 100, N-(2-Cycloheptylamino-4H-benzo[d][1,3]oxazin-6-yl)-benzenesulfonamide] here?
The Ki was 0.0747 µM.

How did the Ki turn out when CN(C)S(=O)(=O)Nc1ccc2c(c1)COC(NC1CCCCCC1)=N2 [Example 99, N,N-(Dimethyl)-N′-{2-cycloheptylamino-4H-benzo[d][1,3]oxazin-6-yl-}-sulfamide] was run?
The Ki was 0.0476 µM.

Fc1ccc2c(c1)CCC2NC1=Nc2ccc(Br)cc2CO1 (racemic) [Example 53, rac-(6-Bromo-4H-benzo[d][1,3]oxazin-2-yl)-(5-fluoro-indan-1-yl)-amine] was tested. Which Ki did it give?
Its Ki is 0.0436 µM.

CC1(C)Cc2cccc(NC3=Nc4ccc(NCc5ncc[nH]5)cc4CO3)c2O1 [Example 131, N^2-(2,2-Dimethyl-2,3-dihydro-benzofuran-7-yl)-N^6-(1H-imidazol-2-ylmethyl)-4H-benzo[d][1,3]oxazine-2,6-diamine] was tested. Which Ki did it give?
The Ki was 0.0179 µM.

How did the Ki turn out when O=S(=O)(Nc1ccc2c(c1)COC(NCCOc1ccccc1)=N2)C1CC1 [Example 108, Cyclopropanesulfonic acid [2-(2-phenoxy-ethylamino)-4H-benzo[d][1,3]oxazin-6-yl]-amide] was run?
Its Ki is 0.0291 µM.

How did the Ki turn out when COc1cccc2c1C(NC1=Nc3ccc(NC(=O)CN4CCOCC4)cc3CO1)CO2 (racemic) [Example 13, rac-N-[2-(4-Methoxy-2,3-dihydro-benzofuran-3-ylamino)-4H-benzo[d][1,3]oxazin-6-yl]-2-morpholin-4-yl-acetamide] was run?
The Ki was 0.0406 µM.

COCC(=O)Nc1ccc2c(c1)COC(NC1CCc3cc(F)ccc31)=N2 (racemic) [Example 21, rac-N-[2-(5-Fluoro-indan-1-ylamino)-4H-benzo[d][1,3]oxazin-6-yl]-2-methoxy-acetamide] was tested. Which Ki did it give?
Its Ki is 0.0055 µM.

How did the Ki turn out when Nc1ccc2c(c1)COC(N[C@@H]1CCc3ccccc31)=N2 [Example 2, (R)-N^2-Indan-1-yl-4H-benzo[d][1,3]oxazine-2,6-diamine] was run?
The Ki was 0.00104 µM.

FC(F)(F)c1ccnc(Nc2ccc3c(c2)COC(N[C@@H]2CCc4ccccc42)=N3)n1 [Example 46, N^2-(R)-Indan-1-yl-N^6-(4-trifluoromethyl-pyrimidin-2-yl)-4H-benzo[d][1,3]oxazine-2,6-diamine] was tested. Which Ki did it give?
The Ki was 0.0071 µM.

With CC(C)N1C2CCC1CC(NCC(=O)Nc1ccc3c(c1)COC(N[C@@H]1CCCc4ccccc41)=N3)C2 (stereo partly drawn) [Example 73, 2-((exo)-8-Isopropyl-8-aza-bicyclo[3.2.1]oct-3-ylamino)-N-{2-[(R)-(1,2,3,4-tetrahydro-naphthalen-1-yl)amino]-4H-benzo[d][1,3]oxazin-6-yl}-acetamide] as the compound, how does the Ki read?
The Ki was 0.0613 µM.

With Cc1ccc(CNC2=Nc3ccc(N)cc3CO2)o1 [Example 77, N^2-(5-Methyl-furan-2-ylmethyl)-4H-benzo[d][1,3]oxazine-2,6-diamine] as the compound, how does the Ki read?
Its Ki is 0.0135 µM.

For CS(=O)(=O)Nc1ccc2c(c1)COC(N[C@@H]1CCc3ccccc31)=N2 [Example 78, N-[2-((R)-Indan-1-ylamino)-4H-benzo[d][1,3]oxazin-6-yl]-methanesulfonamide], which Ki is on record?
The Ki was 0.00444 µM.

For CN1CCN(CC(=O)Nc2ccc3c(c2)COC(NC2CCOc4ccccc42)=N3)CC1 (racemic) [Example 120, rac-N-[2-(Chroman-4-ylamino)-4H-benzo[d][1,3]oxazin-6-yl]-2-(4-methyl-piperazin-1-yl)-acetamide], which Ki is on record?
The Ki was 0.0143 µM.

How did the Ki turn out when COc1cccc2c1C(NC1=Nc3ccc(NS(C)(=O)=O)cc3CO1)CO2 (racemic) [Example 114, rac-N-[2-(4-Methoxy-2,3-dihydro-benzofuran-3-ylamino)-4H-benzo[d][1,3]oxazin-6-yl]-methanesulfonamide] was run?
The Ki was 0.0304 µM.

For c1ccc(CNc2ccc3c(c2)COC(NC2CCCCCC2)=N3)cc1 [Example 94, N^6-Benzyl-N^2-cycloheptyl-4H-benzo[d][1,3]oxazine-2,6-diamine], which Ki is on record?
Its Ki is 0.0635 µM.

Which Ki does the source give for Nc1ccc2c(c1)COC(NC1CCc3cc(F)ccc31)=N2 (racemic) [Example 11, rac-N^2-(5-Fluoro-indan-1-yl)-4H-benzo[d][1,3]oxazine-2,6-diamine] here?
The Ki was 0.00126 µM.

Which Ki does the source give for COc1ccccc1CNC1=Nc2ccc([N+](=O)[O-])cc2CO1 [Example 1, (2-Methoxy-benzyl)-(6-nitro-4H-benzo[d][1,3]oxazin-2-yl)-amine] here?
The Ki was 0.39 µM.

With COc1ccccc1CNC1=Nc2ccc(N)cc2CO1 [Example 4, N^2-(2-Methoxy-benzyl)-4H-benzo[d][1,3]oxazine-2,6-diamine] as the compound, how does the Ki read?
The Ki was 0.00605 µM.

For O=C(CN1CCOCC1)Nc1ccc2c(c1)COC(NCCOc1ccccc1)=N2 [Example 123, 2-Morpholin-4-yl-N-[2-(2-phenoxy-ethylamino)-4H-benzo[d][1,3]oxazin-6-yl]-acetamide], which Ki is on record?
The Ki was 0.0414 µM.

With Cc1ccc(CNC2=Nc3ccc(NC(=O)CN4CCN(C)CC4)cc3CO2)o1 [Example 84, N-{2-[(5-Methyl-furan-2-ylmethyl)-amino]-4H-benzo[d][1,3]oxazin-6-yl}-2-(4-methyl-piperazin-1-yl)-acetamide] as the compound, how does the Ki read?
The Ki was 0.0268 µM.

For Nc1ccc2c(c1)COC(NC1CCOc3ccccc31)=N2 (racemic) [Example 75, rac-N^2-Chroman-4-yl-4H-benzo[d][1,3]oxazine-2,6-diamine], which Ki is on record?
The Ki was 0.0163 µM.

With COc1cccc2c1C(NC1=Nc3ccc(NC(=O)C4CC4)cc3CO1)CCC2 (racemic) [Example 23, rac-Cyclopropanecarboxylic acid [2-(8-methoxy-1,2,3,4-tetrahydro-naphthalen-1-ylamino)-4H-benzo[d][1,3]oxazin-6-yl]-amide] as the compound, how does the Ki read?
Its Ki is 0.00185 µM.

With CC(C)NC(=O)Nc1ccc2c(c1)COC(NC1CCCCCC1)=N2 [Example 154, 1-(2-Cycloheptylamino-4H-benzo[d][1,3]oxazin-6-yl)-3-isopropyl-urea] as the compound, how does the Ki read?
The Ki was 0.00186 µM.

For CN1CCN(CC(=O)Nc2ccc3c(c2)COC(N[C@@H]2CCCc4ccccc42)=N3)CC1 [Example 38, 2-(4-Methyl-piperazin-1-yl)-N-{2-[(R)-(1,2,3,4-tetrahydro-naphthalen-1-yl)amino]-4H-benzo[d][1,3]oxazin-6-yl}-acetamide], which Ki is on record?
Its Ki is 0.00316 µM.

Which Ki does the source give for c1ccc2c(c1)CC[C@H]2NC1=Nc2ccc(NCc3nccs3)cc2CO1 [Example 89, N^2—(R)-Indan-1-yl-N^6-thiazol-2-ylmethyl-4H-benzo[d][1,3]oxazine-2,6-diamine] here?
The Ki was 0.00118 µM.

With COc1cccc2c1C(NC1=Nc3ccc(NS(=O)(=O)N4CCCCC4)cc3CO1)CC2 (racemic) [Example 62, rac-Piperidine-1-sulfonic acid [2-(7-methoxy-indan-1-ylamino)-4H-benzo[d][1,3]oxazin-6-yl]-amide] as the compound, how does the Ki read?
The Ki was 0.00326 µM.

Which Ki does the source give for COc1cccc2c1C(NC1=Nc3ccc(Nc4nccc(C(F)(F)F)n4)cc3CO1)CO2 (racemic) [Example 60, rac-N^2-(4-Methoxy-2,3-dihydro-benzofuran-3-yl)-N^6-(4-trifluoromethyl-pyrimidin-2-yl)-4H-benzo[d][1,3]oxazine-2,6-diamine] here?
Its Ki is 0.0125 µM.
